Assay results published in patent US20130230485A1, “Methods for Treating Patients Undergoing Multi-Cycle Chemotherapy” (priority 2012, published 2013).
Entries after “also recorded” stand apart in the source; their conditions may differ.

What was measured:
[1] = system: patients with recurrent ovarian cancer receiving gemcitabine and a platin; assay: Phase 2 study: pharmacodynamic effects on peripheral platelet counts and ANC; format: in vivo, human
Excerpt: (§1) Following Institutional Review Board protocol approval and patient signature of an informed consent form, eligible patients were randomized in a 1:1:1 ratio to receive 100 mcg/kg/day TXA127, 300 mcg/kg/day TXA127, or placebo with gemcitabine plus carboplatin or cisplatin. The randomization was stratified by the patients' intended chemotherapy regimen (see below). The Investigator, patient, and Sponsor were blinded to the treatment assignment. Treatment consisted of up to six consecutive 21-day cycles of one of the following chemotherapy regimens:
(§2) Regimen A • Intravenous cisplatin therapy at a dose between 30 and 50 mg/m^2 (inclusive) given on Day 1 of the cycle • Intravenous gemcitabine at a dose of 800 mg/m^2 given on Day 1 after cisplatin and on Day 8 of the cycle • Regimen B • Intravenous gemcitabine at a dose of 1,000 mg/m^2 given on Days 1 and 8 of the cycle • Intravenous carboplatin AUC range of 4-6 given on Day 1 of the cycle after gemcitabine
(§3) Study drug (TXA127 or placebo) was administered subcutaneously during each treatment cycle once daily for 5 consecutive days following the first chemotherapy agent (Days 2-6) and for 7 consecutive days following the second chemotherapy agent (Days 9-15). At Baseline, End-of-Treatment and weekly throughout each treatment cycle, blood specimens were collected for determination of hematologic variables. Hematologic responses were evaluated based on the National Cancer Institute Common Terminology Criteria for Adverse Events (NCl-CTCAE), Version 3.0.
The following parameters were evaluated to assess the pharmacodynamic effects of TXA127 on peripheral platelet counts: nadir platelet count, maximal platelet count, and maximum percentage increase and decrease from baseline.

[2] = system: patients with recurrent ovarian cancer receiving gemcitabine and a platin; assay: Phase 2 study: adverse events / safety analysis; format: in vivo, human
Excerpt: as §1, §2, §3
Thirty-two patients who underwent randomization were included in the efficacy analysis according to their randomly assigned treatment group (intention-to-treat principle). Two additional patients were excluded from this analysis: one patient treated with 100 mcg/kg TXA127 was excluded due to consent withdrawal and one patient treated with 300 mcg/kg TXA127 was excluded due to disease progression. Both patients initiated a single cycle of chemotherapy and had no study drug-related adverse events. All patients were included in the safety analysis.

For `CC[C@H](C)[C@H](NC(=O)[C@H](Cc1ccc(O)cc1)NC(=O)[C@@H](NC(=O)[C@H](CCCNC(=N)N)NC(=O)[C@@H](N)CC(=O)O)C(C)C)C(=O)N[C@@H](Cc1c[nH]cn1)C(=O)N1CCC[C@H]1C(=O)O` [TXA127, Asp-Arg-Val-Tyr-Ile-His-Pro], the “ANC relative to placebo (in words)” value ([1]; 100 mcg/kg TXA127) was “decrease in the nadir ANC relative to placebo; also recorded: significant reduction in ANC”, the “maximal percentage decrease in ANC post-baseline” value ([1]; 100 mcg/kg TXA127) was 85% and the “maximal percentage decrease in ANC post-baseline” value ([1]; 300 mcg/kg TXA127) was 78%. For the same compound, the “Frequency of Adverse Events: Abdominal Distension” value ([2]; 100 mcg group (11 patients)) was 1, the “Frequency of Adverse Events: Abdominal Pain” value ([2]; 100 mcg group (11 patients)) was 4 and the “Frequency of Adverse Events: Anaemia” value ([2]; 100 mcg group (11 patients)) was 4. For the same compound, the “Frequency of Adverse Events: Arthralgia” value ([2]; 100 mcg group (11 patients)) was 1, the “Frequency of Adverse Events: Back Pain” value ([2]; 100 mcg group (11 patients)) was 5 and the “Frequency of Adverse Events: Constipation” value ([2]; 100 mcg group (11 patients)) was 7. The “Frequency of Adverse Events: Cough” value ([2]; 100 mcg group (11 patients)) was 0, the “Frequency of Adverse Events: Decreased Appetite” value ([2]; 100 mcg group (11 patients)) was 3 and the “Frequency of Adverse Events: Dizziness” value ([2]; 100 mcg group (11 patients)) was 3. For the same compound, the “Frequency of Adverse Events: Dyspepsia” value ([2]; 100 mcg group (11 patients)) was 4, the “Frequency of Adverse Events: Dyspnea” value ([2]; 100 mcg group (11 patients)) was 0 and the “Frequency of Adverse Events: Dysuria” value ([2]; 100 mcg group (11 patients)) was 2. For the same compound, the “Frequency of Adverse Events: Epistaxis” value ([2]; 100 mcg group (11 patients)) was 0, the “Frequency of Adverse Events: Fatigue” value ([2]; 100 mcg group (11 patients)) was 6 and the “Frequency of Adverse Events: Headache” value ([2]; 100 mcg group (11 patients)) was 5. For the same compound, the “Frequency of Adverse Events: Hypersensitivity” value ([2]; 100 mcg group (11 patients)) was 1, the “Frequency of Adverse Events: Leukopenia” value ([2]; 100 mcg group (11 patients)) was 3 and the “Frequency of Adverse Events: Nausea” value ([2]; 100 mcg group (11 patients)) was 7. For the same compound, the “Frequency of Adverse Events: Neutropenia” value ([2]; 100 mcg group (11 patients)) was 5, the “Frequency of Adverse Events: Oropharyngeal Pain” value ([2]; 100 mcg group (11 patients)) was 1 and the “Frequency of Adverse Events: Pyrexia” value ([2]; 100 mcg group (11 patients)) was 3. The “Frequency of Adverse Events: Rash” value ([2]; 100 mcg group (11 patients)) was 1, the “Frequency of Adverse Events: Thrombocytopenia” value ([2]; 100 mcg group (11 patients)) was 5 and the “Frequency of Adverse Events: Vomiting” value ([2]; 100 mcg group (11 patients)) was 4. The thrombocytosis following treatment ([2]; 100 mcg/kg TXA127) was “One patient experienced thrombocytosis”, the “patients who discontinued study drug due to a treatment-emergent adverse event” value ([2]; 100 mcg/kg group) was “Two” and the “Frequency of Adverse Events: Abdominal Distension” value ([2]; 300 mcg group (13 patients)) was 4. For the same compound, the “Frequency of Adverse Events: Abdominal Pain” value ([2]; 300 mcg group (13 patients)) was 1, the “Frequency of Adverse Events: Anaemia” value ([2]; 300 mcg group (13 patients)) was 5 and the “Frequency of Adverse Events: Arthralgia” value ([2]; 300 mcg group (13 patients)) was 1. For the same compound, the “Frequency of Adverse Events: Back Pain” value ([2]; 300 mcg group (13 patients)) was 5, the “Frequency of Adverse Events: Constipation” value ([2]; 300 mcg group (13 patients)) was 5 and the “Frequency of Adverse Events: Cough” value ([2]; 300 mcg group (13 patients)) was 2. For the same compound, the “Frequency of Adverse Events: Decreased Appetite” value ([2]; 300 mcg group (13 patients)) was 0, the “Frequency of Adverse Events: Dizziness” value ([2]; 300 mcg group (13 patients)) was 3 and the “Frequency of Adverse Events: Dyspepsia” value ([2]; 300 mcg group (13 patients)) was 2. For the same compound, the “Frequency of Adverse Events: Dyspnea” value ([2]; 300 mcg group (13 patients)) was 5, the “Frequency of Adverse Events: Dysuria” value ([2]; 300 mcg group (13 patients)) was 1 and the “Frequency of Adverse Events: Epistaxis” value ([2]; 300 mcg group (13 patients)) was 1. For the same compound, the “Frequency of Adverse Events: Fatigue” value ([2]; 300 mcg group (13 patients)) was 7, the “Frequency of Adverse Events: Headache” value ([2]; 300 mcg group (13 patients)) was 5 and the “Frequency of Adverse Events: Hypersensitivity” value ([2]; 300 mcg group (13 patients)) was 2. The “Frequency of Adverse Events: Leukopenia” value ([2]; 300 mcg group (13 patients)) was 2, the “Frequency of Adverse Events: Nausea” value ([2]; 300 mcg group (13 patients)) was 9 and the “Frequency of Adverse Events: Neutropenia” value ([2]; 300 mcg group (13 patients)) was 8. The “Frequency of Adverse Events: Oropharyngeal Pain” value ([2]; 300 mcg group (13 patients)) was 1, the “Frequency of Adverse Events: Pyrexia” value ([2]; 300 mcg group (13 patients)) was 2 and the “Frequency of Adverse Events: Rash” value ([2]; 300 mcg group (13 patients)) was 5. The “Frequency of Adverse Events: Thrombocytopenia” value ([2]; 300 mcg group (13 patients)) was 2, the “Frequency of Adverse Events: Vomiting” value ([2]; 300 mcg group (13 patients)) was 5 and the “patients who discontinued study drug due to a treatment-emergent adverse event” value ([2]; 300 mcg/kg group) was “Two”. The “safety with these chemotherapy regimens” value ([2]; up to 6 cycles of gemcitabine + platin) was “The safety of TXA127 was demonstrated”.
